Reference: PubChem BioAssay AID248 (DTP/NCI, 2004)
Where “and” joins values, the source holds several entries; their conditions need not be identical. Equal entries are not always repeated. Inconclusive results and toxic doses are left out. Cut-off read from the data, not from the text of the source: active = T/C of 150% or more; inactive = T/C below 125%.

System: L1210 leukemia ip in BDF1 mice, survival T/C
Experiment: NCI In Vivo Anticancer Drug Screen. Data for tumor model L1210 Leukemia (intraperitoneal) in B6D2F1 (BDF1) mice
Conditions: endpoint: mean survival time, higher = longer survival
Outline: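 Value reflects the ratio of survival in compound-treated mice to survival in vehicle-treated controls, with both groups carrying the same transplanted tumor.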

[1] = dose: 100.0 mg/kg/injection, schedule: Q04DX002 (ip), vehicle: Klucel (hydroxypropylcellulose) (HPC)
[2] = dose: 200.0 mg/kg/injection, schedule: Q04DX002 (ip), vehicle: Klucel (hydroxypropylcellulose) (HPC)
[3] = dose: 400.0 mg/kg/injection, schedule: Q04DX002 (ip), vehicle: Klucel (hydroxypropylcellulose) (HPC)
[4] = dose: 100.0 mg/kg/injection, schedule: Q01DX009 (ip), vehicle: saline with Tween-80
[5] = dose: 100.0 mg/kg/injection, schedule: Q04DX003 (ip), vehicle: saline with Tween-80
[6] = dose: 200.0 mg/kg/injection, schedule: Q01DX009 (ip), vehicle: saline with Tween-80
[7] = dose: 200.0 mg/kg/injection, schedule: Q04DX003 (ip), vehicle: saline with Tween-80
[8] = dose: 400.0 mg/kg/injection, schedule: Q01DX009 (ip), vehicle: saline with Tween-80
[9] = dose: 400.0 mg/kg/injection, schedule: Q04DX003 (ip), vehicle: saline with Tween-80
[10] = dose: 75.0 mg/kg/injection, schedule: Q01DX001 (ip), vehicle: other
[11] = dose: 150.0 mg/kg/injection, schedule: Q01DX001 (ip), vehicle: other
[12] = dose: 200.0 mg/kg/injection, schedule: Q01DX001 (ip), vehicle: other
[13] = dose: 400.0 mg/kg/injection, schedule: Q01DX001 (ip), vehicle: other
[14] = dose: 100.0 mg/kg/injection, schedule: Q01DX001 (ip), vehicle: saline
[15] = dose: 200.0 mg/kg/injection, schedule: Q01DX001 (ip), vehicle: saline
[16] = dose: 400.0 mg/kg/injection, schedule: Q01DX001 (ip), vehicle: saline

Measured: T/C

O=C(/C=C/c1ccc(Cl)cc1)NCC(O)CO (stereo not drawn)
inactive: dose: 150.0 mg/kg/injection, schedule: Q04DX003 (ip), vehicle: water 100 % of control | dose: 300.0 mg/kg/injection, schedule: Q04DX003 (ip), vehicle: water 105 % of control | dose: 600.0 mg/kg/injection, schedule: Q04DX003 (ip), vehicle: water 102 % of control

Cc1cc(C)c(NC(=O)c2c(Br)c(Br)c(Br)c(Br)c2C(=O)O)c(C)c1
inactive: [1] 101 % of control | [2] 111 % of control | [3] 87 % of control

CC1(C)C(=O)C2(C(=O)O)CCC1C2 (stereo not drawn)
inactive: [4] 93 % of control | [5] 101 % of control | [6] 98 % of control | [7] 101 % of control | [8] 96 % of control | [9] 88 % of control

CC(=O)Nc1cccc(OC(=O)Nc2ccc(F)c(Cl)c2)c1
inactive: [1] 96 % of control | [2] 89 % of control | [3] 121 % of control

ClC1=C(Cl)C2(Cl)C3C4CC(C(I)C4I)C3C1(Cl)C2(Cl)Cl (stereo not drawn)
inactive: [10] 98 % of control | [11] 95 % of control

CC1CN=C(c2ccc(O)c(O)c2)S1 (stereo not drawn)
inactive: dose: 100.0 mg/kg/injection, schedule: Q04DX002 (ip), vehicle: saline 107 % of control | dose: 200.0 mg/kg/injection, schedule: Q04DX002 (ip), vehicle: saline 107 % of control | dose: 400.0 mg/kg/injection, schedule: Q04DX002 (ip), vehicle: saline 100 % of control

Cc1ccc(NC(=O)NCCCCCCNC(=O)Nc2ccc(C)c(Cl)c2)cc1Cl
inactive: [5] 93 % of control | [6] 89 % of control | [7] 92 % of control | [9] 95 % of control

COc1cccc(C(Cc2ccc(N3C(N)=NC(N)=NC3(C)C)cc2)C(=O)Nc2ccc(S(=O)(=O)F)cc2)c1 (stereo not drawn)
inactive: dose: 50.0 mg/kg/injection, schedule: Q01DX001 (ip), vehicle: Klucel (hydroxypropylcellulose) (HPC) 99 % of control | dose: 100.0 mg/kg/injection, schedule: Q01DX001 (ip), vehicle: Klucel (hydroxypropylcellulose) (HPC) 99 % of control | dose: 200.0 mg/kg/injection, schedule: Q01DX001 (ip), vehicle: Klucel (hydroxypropylcellulose) (HPC) 96 % of control

C#CCCCCCl
inactive: dose: 100.0 mg/kg/injection, schedule: Q01DX001 (ip), vehicle: other 103 % of control | [12] 104 % of control | [13] 108 % of control

CCOc1cccc(NNc2ccccc2OCC)c1
inactive: dose: 44.0 mg/kg/injection, schedule: Q01DX001 (ip), vehicle: other 106 % of control | dose: 66.0 mg/kg/injection, schedule: Q01DX001 (ip), vehicle: other 95 % of control | [11] 92 % of control | [12] 97 % of control | [13] 97 % of control

CN(N)c1nc2c(N)ncnc2n1C1OC(CO)C(O)C1O (stereo not drawn)
inactive: dose: 12.5 mg/kg/injection, schedule: Q01DX005 (ip), vehicle: saline 97 % of control | dose: 25.0 mg/kg/injection, schedule: Q01DX005 (ip), vehicle: saline 108 % of control | dose: 50.0 mg/kg/injection, schedule: Q01DX005 (ip), vehicle: saline 100 % of control

Nc1ccc(SCCC(=O)O)cc1
inactive: [10] 96 % of control and 97 % of control | [11] 105 % of control

COc1cc2ccc3c4cc5c(cc4c[n+](C)c3c2cc1OC)OCO5
inactive: dose: 10.0 mg/kg/injection, schedule: Q01DX009 (ip), vehicle: saline 124 % of control | dose: 20.0 mg/kg/injection, schedule: Q01DX009 (ip), vehicle: saline 112 % of control | dose: 40.0 mg/kg/injection, schedule: Q01DX009 (ip), vehicle: saline 122 % of control

O=C(C[n+]1ccc2c([N+](=O)[O-])cccc2c1)c1ccccc1
inactive: dose: 12.5 mg/kg/injection, schedule: Q04DX003 (ip), vehicle: Klucel (hydroxypropylcellulose) (HPC) 98 % of control | dose: 25.0 mg/kg/injection, schedule: Q04DX003 (ip), vehicle: Klucel (hydroxypropylcellulose) (HPC) 105 % of control | dose: 50.0 mg/kg/injection, schedule: Q04DX003 (ip), vehicle: Klucel (hydroxypropylcellulose) (HPC) 103 % of control | dose: 100.0 mg/kg/injection, schedule: Q04DX003 (ip), vehicle: Klucel (hydroxypropylcellulose) (HPC) 96 % of control

NNC(=O)OCc1ccccc1
inactive: dose: 25.0 mg/kg/injection, schedule: Q04DX002 (ip), vehicle: saline with Tween-80 100 % of control | dose: 50.0 mg/kg/injection, schedule: Q04DX002 (ip), vehicle: saline with Tween-80 100 % of control | dose: 100.0 mg/kg/injection, schedule: Q04DX002 (ip), vehicle: saline with Tween-80 100 % of control

O=C(CNC(=O)OCc1ccccc1)NCCCCCCNCCCCCCNC(=O)CNC(=O)OCc1ccccc1
inactive: dose: 1.25 mg/kg/injection, schedule: Q01DX Z (ip), vehicle: saline 93 % of control | dose: 2.5 mg/kg/injection, schedule: Q01DX Z (ip), vehicle: saline 93 % of control | dose: 5.0 mg/kg/injection, schedule: Q01DX Z (ip), vehicle: saline 94 % of control | dose: 10.0 mg/kg/injection, schedule: Q01DX Z (ip), vehicle: saline 93 % of control

O=C(OCc1ccccc1)c1ccccc1
inactive: [4] 98 % of control | [6] 105 % of control | [8] 93 % of control

NCCc1nc(C(=O)O)cs1
inactive: [14] 104 % of control | dose: 100.0 mg/kg/injection, schedule: Q01DX009 (ip), vehicle: saline 86 % of control | dose: 100.0 mg/kg/injection, schedule: Q04DX003 (ip), vehicle: saline 103 % of control | [15] 102 % of control | dose: 200.0 mg/kg/injection, schedule: Q01DX009 (ip), vehicle: saline 97 % of control | dose: 200.0 mg/kg/injection, schedule: Q04DX003 (ip), vehicle: saline 119 % of control | [16] 104 % of control | dose: 400.0 mg/kg/injection, schedule: Q01DX009 (ip), vehicle: saline 86 % of control | dose: 400.0 mg/kg/injection, schedule: Q04DX003 (ip), vehicle: saline 92 % of control

COc1cc(C(=O)NO)cc(OC)c1OC
inactive: [5] 97 % of control and 104 % of control | [7] 97 % of control and 110 % of control | [9] 97 % of control and 100 % of control

c1ccc(-n2ncnn2)cc1
inactive: [14] 98 % of control | [15] 95 % of control | [16] 90 % of control

O=C(Nc1cccc(C(F)(F)F)c1)c1cc(C(O)C2CCCCN2)c2cccc(C(F)(F)F)c2n1 (stereo not drawn)
inactive: dose: 100.0 mg/kg/injection, schedule: Q01DX009 (sc), vehicle: olive oil, sesame oil, peanut oil 105 % of control | dose: 100.0 mg/kg/injection, schedule: Q04DX003 (sc), vehicle: olive oil, sesame oil, peanut oil 102 % of control | dose: 200.0 mg/kg/injection, schedule: Q01DX009 (sc), vehicle: olive oil, sesame oil, peanut oil 97 % of control | dose: 200.0 mg/kg/injection, schedule: Q04DX003 (sc), vehicle: olive oil, sesame oil, peanut oil 97 % of control | dose: 400.0 mg/kg/injection, schedule: Q01DX009 (sc), vehicle: olive oil, sesame oil, peanut oil 108 % of control | dose: 400.0 mg/kg/injection, schedule: Q04DX003 (sc), vehicle: olive oil, sesame oil, peanut oil 97 % of control
